This experiment has as its system all eight Enterococcus or Streptococcus strains. In words: MIC against eight Enterococcus or Streptococcus strains. The format is cell-based, Enterococcus and Streptococcus spp.
For the molecule `CN[C@H](CC(C)C)C(=O)N[C@H]1C(=O)N[C@@H](CC(N)=O)C(=O)N[C@H]2C(=O)N[C@H]3C(=O)N[C@H](C(=O)N[C@H](C(=O)O)c4cc(O)cc(O)c4-c4cc3ccc4O)[C@H](O)c3ccc(c(Cl)c3)Oc3cc2cc(c3O[C@@H]2O[C@H](CO)[C@@H](O)[C@H](O)[C@H]2O[C@H]2C[C@](C)(N)[C@H](O)[C@H](C)O2)Oc2ccc(cc2Cl)[C@H]1O` [Van, vancomycin], the “activity against all eight Enterococcus or Streptococcus strains” value (“activity” for short) was “active”. As for lysobactin, the “activity” value is listed as “active”. nisin: the “activity” value is listed as “active”. ramoplanin: the “activity” value is “active”.

Source of the values: PMC8732328 (Nature microbiology, 2021).
